Experimental data: US11173124B2, “Oral delivery of GLP-1 peptide analogs” (MEDIMMUNE LIMITED, priority 2017, dated 2021)
Starred links: 1 amine or outer side, 2 acyl side, 3 side chain; linkers in the order of their positions; H or OH if unused. Non-standard residues stand in square brackets, D forms with d. Residues, ends and D or L forms follow the SMILES beside them. Groups on a side chain read outwards from the residue. *: point of attachment. γGlu = O=C(O)[C@H](CCC(=O)[*:2])N[*:1]; αMeF = C[C@](N)(Cc1ccccc1)C(=O)O; αMeK = C[C@](N)(CCCCN)C(=O)O; Lauroyl = CCCCCCCCCCCC(=O)*; αMeS = C[C@](N)(CO)C(=O)O; AEEA = NCCOCCOCC(=O)O; Aib = CC(C)(N)C(=O)O

Key:
GLP-1 receptor = GLP-1 receptor (Homo sapiens, UniProt P43220); experiment: cAMP assay, primary assay as described in WO 2016/198544; assay type: cell-based; settings: in vitro potency at the GLP-1 receptor
Source text: The biological activity of a GLP-1 peptide analog can be evaluated, for example, by assessing the ability of the peptide to activate a receptor (e.g., a GLP-1 receptor). Peptide activation of such receptors results in downstream accumulation of cAMP second messenger which can be measured in a functional activity assay.

[1] = Canine study, Na CDC:PG ratios, PE amount and MEDI7219 dose in enterically coated tablets (Example 22, Table 29); assay type: in vivo; settings: Beagle dogs, oral enterically coated tablet
Source text: The following materials and methods were used for quantitative measurements of GLP-1 peptide analogs in plasma (e.g., rat or dog plasma) in the Examples below. These methods used a SCIEX 6600 TripleTOF mass spectrometer coupled with a Shimadzu ultra-high performance liquid chromatography (UHPLC). The specificity of the method was ensured by the retention time, the selected mass for Single-Reaction-Monitoring (SRM) mode, and the selected fragment mass in MS/MS (MS^2) mode.
The plasma extraction procedure used the following steps: • Samples, standards, and quality controls were incubated until they reached room temperature. They were then incubated at 60° C. for 2 minutes and cooled down to room temperature, vortexed, and spun down. • 70 μL of samples, standards, or quality controls were transferred into a 1 mL 96-well plate. • In each well, 420 uL of Precipitation Solution was added. The plate was sealed and shook for 10 minutes on a plate shaker at 600 rpm. • The plate was centrifuged at 18G, 2500 RFC, 20° C. for 10 minutes. • The plate was carefully removed, and the upper clear supernatant was extracted with a 200 uL multichannel pipette into a new 96-well protein lobind plate. The supernatant was extracted twice for each well, and the supernatants were combined. • The Plate was placed in TurboVap and the extracted supernatant was dried completely with heated (65° C.) Nitrogen gas at 60 Fahrenheit (Fh). • After the plate was completely dry, the plates were covered and incubated at room temperature for at least 30 minutes until the plate returned back to ambient temperature. • 150 μL of Reconstitution solution was added to each well. The plate was covered with a pierceable place seal and shaken at 600 rpm for 10 minutes. • The samples were submitted to the LC-MS/MS on the same day of Preparation
Quantification of the data obtained using the high resolution SCIEX 6600 instrument was then performed as follows: • For the quantification, extracted ion chromatograms (XIC) using 0.2 Da m/z extraction window centered on the accurate mass of each fragment ion were generated. Accurate mass was calculated from the structure of the compound. […] Concentrations of the target analyte in unknown samples were obtained by regression analysis using linear fits of peak areas vs. analyte concentration, weighted 1/(concentration). • The quality of the assay was controlled by the quality control samples. • Either Experiment 1 or Experiment 2 could be used for the quantification of the GLP-1 peptide analogs in high resolution mode.

[2] = Canine study, MEDI7219 tablets in acid-resistant capsules (Example 13); assay type: in vivo
Procedure: The formulations tested in this study contained the MEDI7219 (SEQ ID NO:2) peptide, whereas the SEQ ID NO:6 peptide was used in tablet formulations for the previous canine study in Example 12. Tablets were placed in acid-resistant capsules (one tablet/capsule) prior to dosing. […] (Table 20). This formulation contained 0.1 mg/kg MEDI7219 (SEQ ID NO:2) peptide and 300 mg total permeation enhancer (PE) consisting of a 1:2 ratio of sodium chenodeoxycholate to propyl gallate. This ratio worked better compared to a 2:1 ratio of these permeation enhancers (Group 9, Table 20). This study also confirmed the utility of Tris base as a pH stabilizer.

Sequence of GLP-1 receptor (P43220 24-463): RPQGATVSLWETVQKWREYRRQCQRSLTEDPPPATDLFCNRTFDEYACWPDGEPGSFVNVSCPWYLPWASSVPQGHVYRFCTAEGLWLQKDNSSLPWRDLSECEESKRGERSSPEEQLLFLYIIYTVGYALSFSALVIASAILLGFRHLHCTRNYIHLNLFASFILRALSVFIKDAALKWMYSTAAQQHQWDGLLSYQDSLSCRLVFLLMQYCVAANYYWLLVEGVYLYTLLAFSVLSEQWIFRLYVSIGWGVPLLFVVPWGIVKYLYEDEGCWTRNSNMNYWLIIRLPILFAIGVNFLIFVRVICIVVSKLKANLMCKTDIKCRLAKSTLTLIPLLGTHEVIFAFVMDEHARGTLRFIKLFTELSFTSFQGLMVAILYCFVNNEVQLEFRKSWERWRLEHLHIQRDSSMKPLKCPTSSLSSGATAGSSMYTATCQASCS

EC50 (GLP-1 receptor): ~3.9 pM | F ([1]; 150 mg Na CDC and no PG): ~2% | F ([1]; 150 mg PE, 1:2 Na CDC:PG ratio): ~6% | F ([1]; 150 mg PE, 2:1 Na CDC:PG ratio): ~7% | F ([1]; 6.5:1 Na CDC:PG ratio (130 mg Na CDC, 20 mg PG)): ~4% | F ([2]; Intravenous, 0.01 mg/kg, 0.1 mg/mL in 50 mM Tris, 150 mM Mannitol, 0.02% Polysorbate 80, pH8.0): 100% | F ([2]; Oral tablet in capsule, Group 8: 1 mg peptide, 100 mg Na CDC, 200 mg PG): 10.7% | F ([2]; Oral tablet in capsule, Group 9: 1 mg peptide, 200 mg Na CDC, 100 mg PG): 5.0% | F ([2]; Oral tablet in capsule, Group 12: 1 mg peptide, 33.3 mg Na CDC, 16.6 mg PG (NO TRIS)): 0%
SMILES: CCCCCCCCCCCC(=O)N[C@@H](CCC(=O)NCCOCCOCC(=O)NCCOCCOCC(=O)NCCCC[C@H](NC(=O)[C@H](C)NC(=O)[C@@H](NC(=O)[C@](C)(Cc1ccccc1)NC(=O)[C@H](CCC(=O)O)NC(=O)[C@](C)(CCCCN)NC(=O)[C@H](C)NC(=O)[C@H](C)NC(=O)[C@H](CCC(=O)O)NC(=O)CNC(=O)[C@H](CCC(=O)O)NC(=O)[C@H](CC(C)C)NC(=O)[C@H](CCCCNC(=O)COCCOCCNC(=O)COCCOCCNC(=O)CC[C@H](NC(=O)CCCCCCCCCCC)C(=O)O)NC(=O)[C@H](CO)NC(=O)[C@](C)(CO)NC(=O)[C@@H](NC(=O)[C@H](CC(=O)O)NC(=O)[C@H](CO)NC(=O)[C@@H](NC(=O)[C@](C)(Cc1ccccc1)NC(=O)[C@H](CO)NC(=O)CNC(=O)[C@H](CCC(=O)O)NC(=O)C(C)(C)NC(=O)[C@@H](N)Cc1c[nH]cn1)[C@@H](C)O)C(C)C)[C@@H](C)CC)C(=O)N[C@H](C(=O)N[C@H](C(=O)N[C@@H](CCC(=O)O)C(=O)NCC(=O)NCC(N)=O)C(C)C)C(C)C)C(=O)O [MEDI7219, Free-H-[AIB]-EGS-[αMePhe]-TSDV-[αMeSer]-SK[(PEG2)2-γE-Lauroyl]-LEGEAA-[αMeLys]-E-[αMePhe]-IAK[(PEG2)2-γE-Lauroyl]-VVEGG-amide] (H-H[Aib]EGS[αMeF]TSDV[αMeS]SK([AEEA-AEEA-γGlu-Lauroyl])LEGEAA[αMeK]E[αMeF]IAK([AEEA-AEEA-γGlu-Lauroyl])VVEGG-NH2)
